Biological target: T1, human GPR119 (Homo sapiens, UniProt Q8TDV5)
T1 sequence (Q8TDV5 1-308 limits assumed): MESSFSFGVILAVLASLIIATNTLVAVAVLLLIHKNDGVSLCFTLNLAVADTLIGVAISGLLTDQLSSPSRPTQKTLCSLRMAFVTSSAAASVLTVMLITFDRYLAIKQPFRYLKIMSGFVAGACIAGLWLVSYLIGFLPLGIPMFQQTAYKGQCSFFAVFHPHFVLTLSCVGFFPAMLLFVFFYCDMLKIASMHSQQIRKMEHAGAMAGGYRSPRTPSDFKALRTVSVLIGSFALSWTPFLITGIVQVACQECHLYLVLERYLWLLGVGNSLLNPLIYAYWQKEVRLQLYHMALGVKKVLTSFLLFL
Assay: Measurement of GPR119 signaling (cAMP assay; LANCE kit or HTRF) in HEK293 cells stably transfected with human GPR119
Assay type: cell-based
Conditions: agonist-stimulated cAMP in HEK293 cells expressing human GPR119
Procedure: Measurement of GPR119 Signaling Using LANCE 384-Well cAMP Kit
The adenylate cyclase assay was constructed following the LANCE™ cAMP Kit (Perkin Elmer, AD0264) instructions. […] The reaction was stopped by incubating with the supplied detection buffer containing the europium chelate of the Eu-SA/Biotin-cAMP tracer for 3 hours. The assay was performed in duplicate in a 384 well plate for duplicate plates. Fluorescence at 665 nm was measured using a PHERAstar instrument. Basal activity was determined using a DMSO control and maximum response was defined as cAMP stimulation produced by an internal agonist control. Standard cAMP concentrations were assayed concurrently for conversion of fluorescence signal to cAMP level. The data was analyzed using 4-parameter curve fit in Microsoft Excel.
Measurement of GPR119 Signaling Using a Cyclic AMP (cAMP) Homogenous Time Resolved Fluorescence (HTRF) Assay
Chinese hamster ovary (CHO) cell lines stably transfected with the permissive guanine nucleotide binding protein alpha 15 (Gα15) and murine GPR119 were maintained in DMEM media containing FBS, penicillin-streptomycin, puromycin, and G418 (geneticin). […] Agonist activation of the GPR119 receptor was measured in receptor transfected cells described above, treated with compounds of this invention, using a commercial homogenous time resolved fluorescence (HTRF) kit for measurement of cAMP (CisBio, Bedford, Mass.). The assay was performed in 96-well half-volume plates (murine) or 384-well plates (human) following the manufacturers instructions. Briefly, suspended cells were incubated with a dose titration of test compound at RT for 60 min, lysed, and incubated with HTRF reagents for an additional 60 min. The plate was read using an Envision multilabel reader (Perkin Elmer) adjusted to read time resolved fluorescence and the cAMP concentrations were extrapolated from a cAMP calibration curve. […] The concentration of test compound required to stimulate a half-maximal response (EC50), and efficacy as compared to an internal agonist control, was determined from a sigmoidal 4-parameter curve fit of the resulting plot of normalized activity versus compound concentration.

SMILES	EC50 [nM]
CC(C)c1noc(N2CCC([C@H]3C[C@H]3COCc3ccc(S(=O)(=O)C4CC4)cc3)CC2)n1 [Example 25]	18
CCS(=O)(=O)c1ccc(COC[C@@H]2C[C@@H]2C2CCN(c3nc(C(C)C)no3)CC2)cc1 [Example 26, 4-[(1R,2R)-2-({[4-(ethylsulfonyl)benzyl]oxy}methyl)cyclopropyl]-1-(3-isopropyl-1,2,4-oxadiazol-5-yl)piperidine]	3.1
O=S(=O)(c1ccc(COC[C@@H]2C[C@@H]2C2CCN(c3nc(C4CC4)no3)CC2)cc1)C1CC1 [Example 28, 1-(3-cyclopropyl-1,2,4-oxadiazol-5-yl)-4-[(1R,2R)-2-({[4-(cyclopropylsulfonyl)benzyl]oxy}methyl)cyclopropyl]piperidine]	12
CCS(=O)(=O)c1ccc(COC[C@@H]2C[C@@H]2C2CCN(c3nc(C4CC4)no3)CC2)cc1 [Example 29, 1-(3-cyclopropyl-1,2,4-oxadiazol-5-yl)-4-[(1R,2R)-2-({[4-(ethylsulfonyl)benzyl]oxy}methyl)cyclopropyl]piperidine]	2.3
O=S(=O)(c1ccc(COC[C@@H]2C[C@@H]2C2CCN(c3nc(C4CCC4)no3)CC2)cc1)C1CC1 [Example 31, 1-(3-cyclobutyl-1,2,4-oxadiazol-5-yl)-4-[(1R,2R)-2-({[4-(cyclopropylsulfonyl)benzyl]oxy}methyl)cyclopropyl]piperidine]	7
CCS(=O)(=O)c1ccc(COC[C@@H]2C[C@@H]2C2CCN(c3nc(C4CCC4)no3)CC2)cc1 [Example 32, 1-(3-cyclobutyl-1,2,4-oxadiazol-5-yl)-4-[(1R,2R)-2-({[4-(ethylsulfonyl)benzyl]oxy}methyl)cyclopropyl]piperidine]	0.8
CC(C)(C)OC(=O)N1CCC([C@H]2C[C@H]2COCc2ccc(S(C)(=O)=O)c(F)c2)CC1 [Example 33, tert-butyl 4-[(1R,2R)-2-({[3-fluoro-4-(methylsulfonyl)benzyl]oxy}methyl)cyclopropyl]piperidine-1-carboxylate]	1.1
CCS(=O)(=O)c1ccc(COC[C@@H]2C[C@@H]2C2CCN(C(=O)OC(C)(C)C)CC2)cc1F [Example 34, tert-butyl 4-[(1R,2R)-2-({[4-(ethylsulfonyl)-3-fluorobenzyl]oxy}methyl)cyclopropyl]piperidine-1-carboxylate]	0.1
CC(C)OC(=O)N1CCC([C@H]2C[C@H]2COCc2ccc(S(C)(=O)=O)c(F)c2)CC1 [Example 42, isopropyl 4-[(1R,2R)-2-({[3-fluoro-4-(methylsulfonyl)benzyl]oxy}methyl)cyclopropyl]piperidine-1-carboxylate]	8.5
CC1(OC(=O)N2CCC([C@H]3C[C@H]3COCc3ccc(S(C)(=O)=O)c(F)c3)CC2)CC1 [Example 43, 1-methylcyclopropyl 4-[(1R,2R)-2-({[3-fluoro-4-(methylsulfonyl)benzyl]oxy}methyl)cyclopropyl] piperidine-1-carboxylate]	4.7

Second part, the compound after the results:

EC50 [nM]	SMILES
0.26	CC(C)c1cnc(N2CCC([C@H]3C[C@H]3COCc3ccc(S(C)(=O)=O)cc3)CC2)nc1 [Example 23, 5-isopropyl-2-{4-[(1R,2R)-2-({[4-(methylsulfonyl)benzyl]oxy}methyl)cyclopropyl]piperidin-1-yl}pyrimidine]
0.92	CC(C)c1noc(N2CCC([C@H]3C[C@H]3COCc3ccc(S(C)(=O)=O)cc3)CC2)n1 [Example 24, 1-(3-isopropyl-1,2,4-oxadiazol-5-yl)-4-[(1R,2R)-2-({[4-(methylsulfonyl)benzyl]oxy}methyl)cyclopropyl]piperidine]
3.2	CS(=O)(=O)c1ccc(COC[C@@H]2C[C@@H]2C2CCN(c3nc(C4CC4)no3)CC2)cc1 [Example 27, 1-(3-cyclopropyl-1,2,4-oxadiazol-5-yl)-4-[(1R,2R)-2-({[4-(methylsulfonyl)benzyl]oxy}methyl)cyclopropyl]piperidine]
2.8	CCc1noc(N2CCC([C@H]3C[C@H]3COCc3ccc(S(C)(=O)=O)cc3)CC2)n1 [Example 30, 1-(3-ethyl-1,2,4-oxadiazol-5-yl)-4-[(1R,2R)-2-({[4-(methylsulfonyl)benzyl]oxy}methyl)cyclopropyl]piperidine]
0.2	CC(C)c1noc(N2CCC([C@H]3C[C@H]3COCc3ccc(S(C)(=O)=O)c(F)c3)CC2)n1 [Example 35, 4-[(1R,2R)-2-({[3-fluoro-4-(methylsulfonyl)benzyl]oxy}methyl)cyclopropyl]-1-(3-isopropyl-1,2,4-oxadiazol-5-yl)piperidine]
1.9	CCc1noc(N2CCC([C@H]3C[C@H]3COCc3ccc(S(C)(=O)=O)c(F)c3)CC2)n1 [Example 36, 1-(3-ethyl-1,2,4-oxadiazol-5-yl)-4-[(1R,2R)-2-({[3-fluoro-4-(methylsulfonyl)benzyl]oxy}methyl)cyclopropyl]piperidine]
0.6	CS(=O)(=O)c1ccc(COC[C@@H]2C[C@@H]2C2CCN(c3nc(C4CC4)no3)CC2)cc1F [Example 37, 1-(3-cyclopropyl-1,2,4-oxadiazol-5-yl)-4-[(1R,2R)-2-({[3-fluoro-4-(methylsulfonyl)benzyl]oxy}methyl)cyclopropyl]piperidine]
0.4	CCS(=O)(=O)c1ccc(COC[C@@H]2C[C@@H]2C2CCN(c3nc(C(C)C)no3)CC2)cc1F [Example 38, 4-[(1R,2R)-2-({[3-fluoro-4-(ethylsulfonyl)benzyl]oxy}methyl)cyclopropyl]-1-(3-isopropyl-1,2,4-oxadiazol-5-yl)piperidine]
0.6	CCS(=O)(=O)c1ccc(COC[C@@H]2C[C@@H]2C2CCN(c3nc(C4CC4)no3)CC2)cc1F [Example 39, 1-(3-cyclopropyl-1,2,4-oxadiazol-5-yl)-4-[(1R,2R)-2-({[3-fluoro-4-(ethylsulfonyl)benzyl]oxy}methyl)cyclopropyl]piperidine]
0.2	CCc1cnc(N2CCC([C@H]3C[C@H]3COCc3ccc(S(C)(=O)=O)c(F)c3)CC2)nc1 [Example 40, 5-ethyl-2-{4-[(1R,2R)-2-({[3-fluoro-4-(methylsulfonyl)benzyl]oxy}methyl)cyclopropyl]piperidin-1-yl}pyrimidine]
0.4	CS(=O)(=O)c1ccc(COC[C@@H]2C[C@@H]2C2CCN(c3ncc(Cl)cn3)CC2)cc1F [Example 41, 5-chloro-2-{4-[(1R,2R)-2-({[3-fluoro-4-(methylsulfonyl)benzyl]oxy}methyl)cyclopropyl]piperidin-1-yl}pyrimidine]
14.8	CC(C)(C)OC(=O)N1CCC([C@H]2C[C@H]2COCc2cc(F)c(S(C)(=O)=O)c(F)c2)CC1 [Example 44, tert-butyl 4-[(1R,2R)-2-({[3,5-difluoro-4-(methylsulfonyl)benzyl]oxy}methyl)cyclopropyl]piperidine-1-carboxylate]
0.6	CS(=O)(=O)c1c(F)cc(COC[C@@H]2C[C@@H]2C2CCN(c3ncc(Cl)cn3)CC2)cc1F [Example 45, 5-chloro-2-{4-[(1R,2R)-2-({[3,5-difluoro-4-(methylsulfonyl)benzyl]oxy}methyl)cyclopropyl]piperidin-1-yl}pyrimidine]
0.4	CCc1cnc(N2CCC([C@H]3C[C@H]3COCc3cc(F)c(S(C)(=O)=O)c(F)c3)CC2)nc1 [Example 46]
